Like-named read-outs stand apart in the source and are kept apart here.
Experiments:
[1] = test system: Human Aβ1-42, Aβ1-40, phosphorylated tau, total tau; assay: ELISA of AD pathological hallmarks in brain tissue; format: in vivo, 3×Tg-AD mouse; conditions: 50 mg/kg oral, 9 months
Experimental: At study endpoints (age 15 months for sub-chronic study, age 13 months for long-term study), mice were anaesthetized with isoflurane and blood was collected by transcardial puncture. Blood was stored on ice and then centrifuged at 10,000×g at 4° C. for 10 min to collect serum and stored at −80° C. until use. The brain was then extracted and quickly dissected on ice to collect prefrontal cortex (PFC), hippocampus, entorhinal cortex (ERC), and cerebellum, which were immediately frozen in liquid nitrogen. The samples were stored at −80° C. until processed for RNA or protein extraction. […]
Protein lysates were extracted by sonicating tissue in M-PER Mammalian Protein Extraction Reagent (Thermo Fisher Scientific) supplemented with protease inhibitor (Thermo Fisher Scientific) and phosphatase inhibitor (Thermo Fisher Scientific). Total protein was quantified using Pierce BCA Protein Assay Kit (Thermo Fisher Scientific) and read at 562 nm using EnVision (Perkin Elmer).
Human Aβ1-42, Aβ1-40, phosphorylated tau Ser 396, phosphorylated tau Thr181, and total tau were measured in brain tissue by enzyme linked immuno-sorbent assay (ELISA; Invitrogen by Thermo) and normalized to total protein. All the kits were used as per the manufacturer's instructions and measured using the EnVision® multimode plate reader (Perkin Elmer). […]

3×Tg-AD mice = assay: Behavior battery, long-term prophylactic treatment; format: in vivo, mouse; conditions: 50 mg/kg oral, at 6 or 10 months of age
Experimental: For long-term prophylactic studies, a cohort of 30 mice was used (50% males and females). […] JOTROL™ and RSV were prepared under red light and administered using a red syringe and metal gavage to prevent light exposure. Mice were treated 5 days a week for 9 months beginning at 4 months of age (prior to disease development). As detailed below, a battery of behavioral tests was conducted, including Y-maze spontaneous alternation, open field, rotarod, novel object recognition, Barnes maze, and object location memory. A battery of behavior tests designed to test motor coordination skills, anxiety, spatial learning and reference memory was performed on all long-term-treated mice. Motor coordination was evaluated using rotarod. Anxiety was evaluated by open field and elevated 0-maze tests. […] Motor coordination was assessed by the latency to fall on the very first trial between treatment groups. Motor learning was measured both within and between sub-jects by comparing the first trial with subsequent trials and is evident as an increased latency to fall over time. […] Distance, velocity, and time in center versus periphery were recorded and analyzed. Anxiety-related behavior can be determined by the duration spent in the center of the field versus the periphery. […] Total arm entries and percent of spontaneous alternations were recorded. […]

[2] = cited from earlier work

Oc1ccc(/C=C/c2cc(O)cc(O)c2)cc1 [RSV, (trans-)resveratrol]
Phospho-tau at Ser396 in PFC, RSV-treated vs vehicle ([1]; male 3×Tg-AD mice): significantly different | Total tau in hippocampus, decrease vs vehicle ([1]; males and females analyzed together): 170.5±44.83 | Y-maze spontaneous alternation performance (3×Tg-AD mice): No significant group differences | Cmax ([2]; 1 g encapsulated dose (Turner et al. 2015)): 85 ng/mL | Cmax ([2]; 2.5 g micronized dose (Howells et al. 2011)): 1942 ng/mL | AUC exposure, estimated ([2]; 3,000 mg/day, healthy volunteers, published data): 2100 ng·h/mL

Reference: patent US20230075521A1, “RESVERATROL PHARMACEUTICAL COMPOSITIONS AND METHODS OF USE THEREOF” (priority 2021, published 2023)
